Columns and labels:
[1] = molecular target: T1, PPARG (peroxisome proliferator-activated receptor gamma) (Homo sapiens, UniProt P37231); test: ATG_PPARg_TRANS: Factorial reporter gene assay (HepG2); assay type: cell-based; conditions: HepG2 reporter
T1 construct: expressed in transfected cells; host or cells: HepG2
T1 sequence (P37231 1-505): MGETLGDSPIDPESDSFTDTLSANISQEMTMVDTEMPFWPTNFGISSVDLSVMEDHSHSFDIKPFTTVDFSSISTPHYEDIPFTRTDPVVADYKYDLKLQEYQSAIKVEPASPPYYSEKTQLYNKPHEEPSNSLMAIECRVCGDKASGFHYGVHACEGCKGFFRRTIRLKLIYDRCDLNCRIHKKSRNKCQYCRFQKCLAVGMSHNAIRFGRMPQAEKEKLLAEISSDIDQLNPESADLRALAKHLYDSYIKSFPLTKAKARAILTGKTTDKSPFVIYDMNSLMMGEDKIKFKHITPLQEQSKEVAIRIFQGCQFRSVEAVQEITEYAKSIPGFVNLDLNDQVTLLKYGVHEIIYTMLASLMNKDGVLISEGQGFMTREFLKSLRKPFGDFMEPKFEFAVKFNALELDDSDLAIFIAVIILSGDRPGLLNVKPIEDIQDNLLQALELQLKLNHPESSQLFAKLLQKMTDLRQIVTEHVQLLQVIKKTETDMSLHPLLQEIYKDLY
How it was run: (§1)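 Seven test concentrations were run, beginning at the MTC and diluted three-fold serially. PXRE activity came from cis reporters, a 48-site MRTU library in HepG2 hepatoma cells. ERRg, FXR and PPARg activity came from trans one-hybrid reporters, an additional 25-member MRTU set.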

[2] = tested on: ABCB1; test: CLZD_ABCB1: Change in expression of ABCB1 (primary human hepatocytes); assay type: cell-based; conditions: 24 hr
How it was run: (§2)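 Primary human hepatocyte cultures were exposed to test chemicals at 5 concentrations (0.004-40 µM) for 6, 24 or 48 hr.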

[3] = tested on: ABCB11; test: CLZD_ABCB11: Change in expression of ABCB11 (primary human hepatocytes); assay type: cell-based; conditions: 24 hr
Protocol: This is a collection of multiplexed gene expression assays focused on Phase I and II xenobiotic metabolizing enzymes and transporters. Human primary cell cultures were treated with chemicals at 5 concentrations (0.004-40 [drawing 42] M) for 6, 24 and 48 hr. Concentration- and time-response profiles of chemicals were measured by the expression of key nuclear receptor target genes, activities of CYP1A enzymes (EROD), and cell morphology. Fourteen gene targets were monitored by quantitative nuclease protection assay including: six representative cytochrome P-450 genes, four hepatic transporters, three Phase II conjugating enzymes, and one endogenous metabolism gene involved in cholesterol synthesis. The target genes associated with nuclear receptor pathways are as follows: [drawing 43] and [drawing 44] with [drawing 45]; [drawing 46] , [drawing 47] , [drawing 48] , [drawing 49] , [drawing 50] and [drawing 51] with [drawing 52]; [drawing 53] , [drawing 54] , [drawing 55] and [drawing 56] with [drawing 57]; [drawing 58] with [drawing 59]; and [drawing 60] with [drawing 61] . Assays were run in primary human hepatocyte cultures by CellzDirect Invitrogen Inc. (Durham, NC), in collaboration with EPA.
Multiplexed Gene Expression in Human Primary Hepatocytes: This is a collection of multiplexed gene expression assays focused on Phase I and II metabolic enzymes and transporters. […] Fourteen gene targets were monitored by quantitative nuclease protection assay: six representative cytochrome P450 genes, four hepatic transporters, three Phase II conjugating enzymes, and one endogenous metabolism gene involved in cholesterol synthesis. Cells were exposed at 5 concentrations (0.004-40 µM) for 6, 24 or 48 hr. Gene targets are sentinels for five nuclear receptor signaling pathways: AhR, CAR, PXR, FXR, and PPARα. All gene are associated with nuclear receptor pathways: CYP1A1 and CYP1A2 with AHR; ABCB1, ABCG2, CYP2B6, CYP2C9, CYP2C19 and UGT1A1 with CAR; CYP3A4, GSTA2, SLCO1B1 and SULT2A1 with PXR; HMGCS2 with PPARA; and ABCB11 with FXR. […] Detailed description of the methods, data and analysis methods for this dataset will be presented in a separate publication.

[4] = tested on: CYP1A1; test: CLZD_CYP1A1: Change in expression of CYP1A1 (primary human hepatocytes); assay type: cell-based; conditions: 24 hr
How it was run: as §2

[5] = tested on: CYP1A2; test: CLZD_CYP1A2: Change in expression of CYP1A2 (primary human hepatocytes); assay type: cell-based; conditions: 24 hr
How it was run: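 Chemicals are tested in human hepatocyte primary cultures over 0.004-40 µM (5 concentrations) for 6, 24 or 48 hr, and concentration- and time-dependent transcript changes are read by quantitative nuclease protection assay.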

[6] = tested on: CYP3A4; test: CLZD_CYP3A4: Change in expression of CYP3A4 (primary human hepatocytes); assay type: cell-based; conditions: 24 hr
How it was run: as §2

[7] = molecular target: T2, PXR (NR1I2) (Homo sapiens, UniProt O75469); test: NVS_NR_hPXR: Human PXR Fluormone PXR (SXR) green (cell-free HTS); assay type: binding
T2 sequence (O75469 1-434): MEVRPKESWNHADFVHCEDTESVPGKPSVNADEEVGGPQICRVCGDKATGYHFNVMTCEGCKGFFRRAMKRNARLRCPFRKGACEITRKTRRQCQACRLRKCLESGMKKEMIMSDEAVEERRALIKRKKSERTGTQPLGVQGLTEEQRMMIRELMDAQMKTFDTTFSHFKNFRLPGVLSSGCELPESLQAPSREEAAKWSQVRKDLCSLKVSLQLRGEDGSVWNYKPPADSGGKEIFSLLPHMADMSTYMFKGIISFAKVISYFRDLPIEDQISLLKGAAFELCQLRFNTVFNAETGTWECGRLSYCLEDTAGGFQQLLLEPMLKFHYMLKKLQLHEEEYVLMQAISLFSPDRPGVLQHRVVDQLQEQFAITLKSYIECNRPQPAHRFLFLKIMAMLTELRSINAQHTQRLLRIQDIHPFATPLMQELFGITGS
How it was run: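 Cell-free biochemical binding assays; chemicals first screened at a single concentration of 25 […] M in duplicate wells. Signals normalised to same-plate solvent controls as percent of neutral control, and AC50 values came from Hill-equation fits of concentration-response curves.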

[8] = tested on: Rat Liver; conditions: chronic study, rat liver; ref ToxRefDB; cited from earlier work
[9] = tested on: Rat Liver; conditions: chronic study, rat liver; ref ToxRefDB; cited from earlier work; remark: listed apart in the source
[10] = tested on: Rat Liver; conditions: chronic study, rat liver; ref ToxRefDB; cited from earlier work; remark: listed apart in the source
[11] = molecular target: T3, CAR (NR1I3) (Homo sapiens, UniProt Q14994); test: ATG_PBREM_CIS: Factorial reporter gene assay (HepG2); assay type: cell-based; set-up: endogenous in cells; host or cells: HepG2; conditions: HepG2 reporter
T3 sequence (Q14994 1-352): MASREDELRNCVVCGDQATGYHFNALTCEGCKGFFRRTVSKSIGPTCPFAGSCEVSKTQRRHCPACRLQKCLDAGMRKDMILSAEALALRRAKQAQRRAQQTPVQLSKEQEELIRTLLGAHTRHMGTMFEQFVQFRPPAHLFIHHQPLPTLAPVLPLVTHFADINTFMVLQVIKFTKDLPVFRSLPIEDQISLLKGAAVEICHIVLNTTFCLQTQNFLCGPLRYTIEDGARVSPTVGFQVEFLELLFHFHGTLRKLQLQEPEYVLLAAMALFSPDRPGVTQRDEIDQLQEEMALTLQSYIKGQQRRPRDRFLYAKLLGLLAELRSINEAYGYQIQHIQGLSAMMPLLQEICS
Protocol: A multiple reporter transcription unit (MRTU) library consisting of 48 transcription factor binding sites was transfected into the HepG2 human liver hepatoma cell line. In addition to the cis-acting reporter genes (CIS), a modification of the approach was used to generate a trans-system (TRANS) with a mammalian one-hybrid assay consisting of an additional 25 MRTU library reporting the activity of nuclear receptor super-family members. […] These assays were performed by Attagene Inc. (Morrisville NC) under contract to EPA.
In addition to the cis-acting reporter genes (CIS), a modification of the approach was used to generate a trans-system (TRANS) with a mammalian one-hybrid assay consisting of an additional 25 MRTU library reporting the activity of nuclear receptor super-family members. […] Chemicals were then tested in the CIS and TRANS assays at seven concentrations starting at the MTC and followed by three-fold serial dilutions. These assays were performed by Attagene Inc. (Morrisville NC) under contract to EPA. Detailed description of the methods, data and analysis methods for this dataset will be presented in a separate publication.

[12] = molecular target: T2, PXR (NR1I2); test: ATG_PXRE_CIS: Factorial reporter gene assay (HepG2); assay type: cell-based; set-up: endogenous in cells; host or cells: HepG2; conditions: HepG2 reporter
How it was run: as §1

[13] = molecular target: T4, PXR Human (NR1I2) (Homo sapiens, UniProt O75469); test: NCGC_PXR_Agonist_human: GAL4 BLAM Reporter gene assay: PXR Human; assay type: cell-based; conditions: agonist mode
T4 sequence (O75469 146-434 limits assumed): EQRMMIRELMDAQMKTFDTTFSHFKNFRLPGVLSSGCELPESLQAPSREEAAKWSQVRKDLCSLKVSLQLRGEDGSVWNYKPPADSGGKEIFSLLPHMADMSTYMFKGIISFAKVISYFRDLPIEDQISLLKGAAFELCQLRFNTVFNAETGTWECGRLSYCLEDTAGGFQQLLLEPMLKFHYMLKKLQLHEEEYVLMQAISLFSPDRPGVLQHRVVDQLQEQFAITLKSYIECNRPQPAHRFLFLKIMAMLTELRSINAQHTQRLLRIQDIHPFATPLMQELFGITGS
How it was run: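 Tox21 cell-based screens at NCGC using GAL4-fused receptor beta-lactamase reporters. Responses active only at the top concentration (above 50%) were discarded, and fits needed R^2 of at least 0.5.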

[14] = molecular target: T5, PPARg (PPARG) (Homo sapiens, UniProt P37231); test: NCGC_PPARg_Agonist: GAL4 BLAM Reporter gene assay: PPARg; assay type: cell-based; set-up: expressed in transfected cells; host or cells: HEK293; conditions: agonist mode
T5 sequence (P37231 1-505): T1 sequence (P37231 1-505)
Protocol: These assays measure binding constants and enzyme inhibition values for nuclear receptors. The targets include [drawing 67] , [drawing 68] , [drawing 69] , [drawing 70] , [drawing 71] , [drawing 72] , [drawing 73] , [drawing 74] , [drawing 75] and [drawing 76] . Each of the nuclear receptor targets was measured in agonist mode. Assays were run at the NIH Chemical Genomics Center (Rockville, MD).
Cell-based HTS Assays: These assays measuring binding constants and enzyme inhibition values for nuclear receptors. The targets include AR, ER, FXR, LXR, PPARα, PPARδ, PPARγ, RXRα, RXRβ and PXR. Each of the nuclear receptor targets was measured in both agonist and antagonist mode, but the antagonist data is still undergoing analysis due to possible interference between cytotoxicity and assay activity, so antagonist mode data were not used in the present analysis. Assays were run at the NIH Chemical Genomics Center (Rockville, MD) as part of the Tox21 collaboration. […] The R^2 was required to be ≥0.5. Values where only the highest concentration exceeded 50% activity were excluded to eliminate weak or false positives. Detailed description of the methods, data and analysis methods for this dataset will be presented in a separate publication.

[15] = tested on: Mouse Liver; conditions: chronic study, mouse liver; ref ToxRefDB; cited from earlier work
[16] = tested on: Mouse Liver; conditions: chronic study, mouse liver; ref ToxRefDB; cited from earlier work; remark: listed apart in the source
[17] = tested on: Mouse Liver; conditions: chronic study, mouse liver; ref ToxRefDB; cited from earlier work; remark: listed apart in the source

For `COC(=O)N(OC)c1ccccc1COc1ccn(-c2ccc(Cl)cc2)n1` [r270], the ATG_PPARg_TRANS [1] was 6.119, the CLZD_ABCB1_24 [2] was 5.275 and the CLZD_ABCB11_24 [3] was 5.366. For the same compound, the CLZD_CYP1A1_24 [4] was 6.198, the CLZD_CYP1A2_24 [5] was 6.309 and the CLZD_CYP3A4_24 [6] was 5.335. The NVS_NR_hPXR [7] was 5.183, the CHR_Rat_Liver_1_AnyLesion [8] was 6 and the CHR_Rat_Liver_2_PreneoplasticLesion [9] was 0. The CHR_Rat_Liver_3_NeoplasticLesion [10] was 0, the ATG_PBREM_CIS [11] was 5.658 and the ATG_PXRE_CIS [12] was 5.62.

For `N#CSCSc1nc2ccccc2s1` [r289], the NCGC_PXR_Agonist_human [13] was 4.409, the NVS_NR_hPXR [7] was 6.169 and the NCGC_PPARg_Agonist [14] was 4.706.

In the case of `CCC(C)(C)C(=O)OC1=C(c2cc(Cl)cc(Cl)c2)C(=O)OC12CCCCC2` [r285], the ATG_PPARg_TRANS [1] is reported as 5.444, the CLZD_CYP3A4_24 [6] is reported as 6.36 and the NVS_NR_hPXR [7] is reported as 6.367. For the same compound, the CHR_Mouse_Liver_1_AnyLesion [15] was 6, the CHR_Mouse_Liver_2_PreneoplasticLesion [16] was 6 and the CHR_Mouse_Liver_3_NeoplasticLesion [17] was 6. The CHR_Rat_Liver_1_AnyLesion [8] was 6, the CHR_Rat_Liver_2_PreneoplasticLesion [9] was 6 and the CHR_Rat_Liver_3_NeoplasticLesion [10] was 0. The NCGC_PPARg_Agonist [14] was 5.556.
